Reference: patent US6593334B1, “Camptothecin-taxoid conjugates as antimitotic and antitumor agents” (The University of North Carolina at Chapel Hill, priority 2002, dated 2003)

Tests used:
[1] = system: 1A9-PTX10 (paclitaxel resistant sub-line with mutated β-tubulin); test: Human tumor cell replication assay (sulforhodamine B), PTX10; format: cell-based; conditions: paclitaxel-resistant IA9-PTX10 cells, three days of continuous exposure, SRB assay
Procedure: (§1) Human Tumor Cell Replication Assay. Compounds were tested as inhibitors of cell growth against a limited panel of solid tumor lines including KB (epidermoid carcinoma, CL 17) and a camptothecin-resistant sub-line called KB-CPT; HCT-8 (ileocecal adenocarcinoma, CCL 244); MCF-7 (breast adenocarcinoma, HTB 22); PC-3 (prostate adenocarcinoma, CRL 1435); 1A9 (ovarian carcinoma) and a paclitaxel resistant sub-line called PTX10 with mutated β-tubulin. Drug-resistant cell lines were generous gifts of Dr. Y. C. Cheng (Yale University, New Haven, Conn.) and Dr. P. Giannakakou (NIH, Bethesda, Md.). Cell lines were adapted for growth in RPMI-1640 medium supplemented with 25 mM Hepes, 2% NaHCO3, 10% (v/v) fetal calf serum and 100 μg/mL kanamycin. Cultures were maintained in a 5% CO2 atmosphere at 37° C. The sulforhodamine B microtiter plate assay described by Rubinstein et al. (1990) J. Natl. Cancer Inst. 82:1113, was used to evaluate compounds as inhibitors of cell replication. The ED50 value, the concentration of compound that inhibited cell line replication by 50% relative to control after three days of continuous exposure was interpolated from dose-response graphs fitted to data using Prizm (GraphPad software, San Diego, Calif.).
(§2) The five conjugates (16-20) were tested for cytotoxicity against a panel of human tumor cell lines (HTCL) including paclitaxel-resistant and camptothecin-resistant derivatives as described in Rubinstein et al. (1990) J. Natl. Cancer Inst. 82:1113. The results are shown in Table 2 with the values for paclitaxel (1) and camptothecin (2) given for comparison.

[2] = system: HCT-8 (ileocecal adenocarcinoma); test: Human tumor cell replication assay (sulforhodamine B), HCT-8; format: cell-based; conditions: HCT8 cells, three days of continuous exposure, SRB assay
Procedure: as §1, §2

[3] = system: KB (epidermoid carcinoma); test: Human tumor cell replication assay (sulforhodamine B), KB; format: cell-based; conditions: KB cells; for Cell Line/ED50 KB: three days of continuous exposure, SRB assay
Procedure: as §1, §2

[4] = system: MCF-7 (breast adenocarcinoma); test: Human tumor cell replication assay (sulforhodamine B), MCF-7; format: cell-based; conditions: MCF-7 cells, three days of continuous exposure, SRB assay
Procedure: as §1, §2

[5] = system: 1A9 (ovarian carcinoma); test: Human tumor cell replication assay (sulforhodamine B), 1A9; format: cell-based; conditions: IA9 cells; for Cell Line/ED50 IA9: three days of continuous exposure, SRB assay
Procedure: as §1, §2

[6] = system: PC-3 (prostate adenocarcinoma); test: Human tumor cell replication assay (sulforhodamine B), PC-3; format: cell-based; conditions: PC-3 cells, three days of continuous exposure, SRB assay
Procedure: as §1, §2

[7] = system: KB-CPT (camptothecin-resistant KB sub-line); test: Human tumor cell replication assay (sulforhodamine B), KB-CPT; format: cell-based; conditions: camptothecin-resistant KB-CPT cells, three days of continuous exposure, SRB assay
Procedure: as §1, §2

[8] = system: human tumor cell lines (HTCL); test: Human tumor cell line (HTCL) panel, mean over lines; format: cell-based; conditions: mean from HTCL data, does not include values for drug-resistant variants
Procedure: as §1, §2

[9] = target: T1, human DNA Topoisomerase I (Homo sapiens, UniProt P11387); test: DNA Topoisomerase I activity assay (plasmid DNA relaxation); format: biochemical
T1 construct: purchased TopoGen, Columbus, Ohio
T1 sequence (P11387 1-765): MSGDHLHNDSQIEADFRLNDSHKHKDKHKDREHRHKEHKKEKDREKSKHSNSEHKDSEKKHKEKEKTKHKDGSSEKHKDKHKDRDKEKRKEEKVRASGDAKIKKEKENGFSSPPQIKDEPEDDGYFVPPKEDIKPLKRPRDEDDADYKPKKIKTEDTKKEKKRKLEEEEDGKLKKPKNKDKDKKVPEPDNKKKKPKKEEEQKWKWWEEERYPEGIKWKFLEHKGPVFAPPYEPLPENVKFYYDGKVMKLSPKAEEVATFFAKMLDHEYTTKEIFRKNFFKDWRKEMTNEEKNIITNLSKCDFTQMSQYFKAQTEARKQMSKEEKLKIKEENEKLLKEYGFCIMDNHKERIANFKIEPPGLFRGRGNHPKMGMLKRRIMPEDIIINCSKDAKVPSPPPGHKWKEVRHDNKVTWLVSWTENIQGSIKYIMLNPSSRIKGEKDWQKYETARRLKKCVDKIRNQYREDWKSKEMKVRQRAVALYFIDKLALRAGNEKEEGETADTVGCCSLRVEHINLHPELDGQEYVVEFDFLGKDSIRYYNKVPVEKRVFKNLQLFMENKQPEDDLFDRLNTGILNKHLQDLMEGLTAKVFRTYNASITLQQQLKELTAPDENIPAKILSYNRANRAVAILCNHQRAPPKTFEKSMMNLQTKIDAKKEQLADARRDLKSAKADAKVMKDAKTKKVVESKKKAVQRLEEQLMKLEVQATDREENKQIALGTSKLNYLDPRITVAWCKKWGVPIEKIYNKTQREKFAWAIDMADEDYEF
Procedure: DNA Topoisomerase I Activity Assay. Compounds were tested as inhibitors of enzyme catalyzed plasmid DNA relaxation. Reactions contained 0.5 μg pBR322 DNA and 0.5 U human DNA Topoisomerase I (TopoGen, Columbus, Ohio), compounds at 50 μM and buffer components described previously in Krishnan et al. (2000) Anticancer Drug Design 15:255. After 15 min at 37° C., reactions were terminated by adding proteinase K (0.1 mg/mL) and 1% (w/v) SDS. After 1 hour at 50° C., DNA was resolved on a 1% (w/v) agarose gel containing […] ethidium bromide in standard TBE buffer, and photographed under UV light using polaroid 667 film.
Conjugates 16-20 were also tested as inhibitors of human DNA topo I activity in vitro (FIG. 4) in the manner as described in Krishnan et al. (2000) Anticancer Drug Design 15:255. […] None of the conjugates inhibited DNA relaxation.

[10] = at lowest test concentration (inhibition >50%)

Structure (SMILES)	Cell Line/ED50 IA9-PTX10 [1]	Cell Line/ED50 HCT8 [2]	Cell Line/ED50 KB [3]	Cell Line/ED50 MCF-7 [4]	Cell Line/ED50 IA9 [5]	Cell Line/ED50 PC-3 [6]	Cell Line/ED50 KB-CPT [7]	Mean ED50 [8]	inhibition of human DNA topo I activity in vitro [9]	observed percentage inhibition (bracketed value) [3, 10]	observed percentage inhibition (bracketed value) [5, 10]
CC[C@@]1(O)C(=O)OCc2c1cc1n(c2=O)Cc2cc3ccccc3nc2-1 [Camptothecin, camptothecin]	−9.4 log10 M	−9.3 log10 M	−10.8 log10 M	−7.1 log10 M	−10.2 log10 M	−7.1 log10 M	−7.5 log10 M	−8.9 log10 M			
CCC1(O)C(=O)OCc2c1cc1n(c2=O)Cc2c-1nc1ccccc1c2C=NCCC(=O)OC1CC2OCC2(OC(C)=O)C2C(OC(=O)c3ccccc3)C3(O)CC(OC(=O)C(O)C(NC(=O)c4ccccc4)c4ccccc4)C(C)=C(C(OC(C)=O)C(=O)C12C)C3(C)C (stereo not drawn) [Compound 16]	−10.9 log10 M	−10.6 log10 M	<−11.0 log10 M	−7.1 log10 M	<−11.0 log10 M	−7.0 log10 M	−11.1 log10 M	<−9.3 log10 M	only marginal activity	(67) %	(76) %
CCC1(O)C(=O)OCc2c1cc1n(c2=O)Cc2c-1nc1ccccc1c2C=NCCCC(=O)OC1CC2OCC2(OC(C)=O)C2C(OC(=O)c3ccccc3)C3(O)CC(OC(=O)C(O)C(NC(=O)c4ccccc4)c4ccccc4)C(C)=C(C(OC(C)=O)C(=O)C12C)C3(C)C (stereo not drawn) [Compound 17]	−10.5 log10 M	−10.0 log10 M	−10.4 log10 M	−7.1 log10 M	−10.2 log10 M	−7.1 log10 M	−9.7 log10 M	−9.0 log10 M	inactive		
CCC1(O)C(=O)OCc2c1cc1n(c2=O)Cc2c-1nc1ccccc1c2C=NCCCCCC(=O)OC1CC2OCC2(OC(C)=O)C2C(OC(=O)c3ccccc3)C3(O)CC(OC(=O)C(O)C(NC(=O)c4ccccc4)c4ccccc4)C(C)=C(C(OC(C)=O)C(=O)C12C)C3(C)C (stereo not drawn) [Compound 18]	−10.5 log10 M	−10.6 log10 M	−9.3 log10 M	−7.5 log10 M	−10.0 log10 M	−7.5 log10 M	−8.1 log10 M	−9.0 log10 M	only marginal activity		
CC(=O)O[C@H]1C(=O)[C@@]2(C)[C@H]([C@H](OC(=O)c3ccccc3)[C@]3(O)C[C@H](OC(=O)[C@H](O)[C@@H](NC(=O)c4ccccc4)c4ccccc4)C(C)=C1C3(C)C)[C@]1(OC(C)=O)CO[C@@H]1C[C@@H]2O [Paclitaxel, reference compound]	−11.7 log10 M	−7.1 log10 M	−12.1 log10 M	−13.9 log10 M	−12.2 log10 M	−10.3 log10 M	−12.2 log10 M	−11.1 log10 M			
